Laboratory results reported in article PMC4991483 (Oncotarget, 2016).
“Also recorded” adds a separate entry of the source.

How the values were obtained:
[1] = system: glutathione (GSH); assay: physchem; settings: HEPES buffer with reduced glutathione (GSH) and TCEP-HCl, pH 7.4
Experimental: (§3) From 10 mM compound stock solutions in DMSO 10 μL aliquots were transferred to an analytical HPLC vial containing 990 μL of reaction buffer (10.0 mM reduced GSH, 10.0 mM tris(2-carboxyethyl)phosphine hydrochloride (TCEP-HCl) and 50 mM HEPES buffered to pH 7.4) directly preceding 40.0 μL injections continued over a periodic time course. The process was automated by a Hewlett Packard Series 1100 analytical HPLC system fitted with an Agilent ZORBAX 3.5 μm Eclipse XDB-C18 column (23.0–24.0°C) under a linear elution gradient from H2O (double distilled and de-ionized to 18.2 MΩ cm) with 0.10 v/v % TFA to 100% HPLC grade CH3CN over 8.00 min followed by 2.00 min of sustained CH3CN under a 1.200 mL min^−1 flow rate. […] The data, measured in three replicates was fit to a one-phase exponential decay model (GraphPad PRISM) and kinetic parameters extracted from (1).
(1) A(t)=(A0−A∞)e^−kobs^t+A∞

[2] = HPLC-based glutathione (GSH) reactivity / chemical stability assay, 10 mM GSH with TCEP-HCl; settings: 100 μM compound; for K (kobs), one phase decay / Tau, one phase decay: 10 mM TCEP-HCl, 50 mM HEPES pH 7.4; for reactivity with GSH: 10 h timescale
Experimental: as §3
(1) A(t)=(A0−A∞)e^−kobs^t+A∞

[3] = biological target: T1, purified STAT3 (Homo sapiens, UniProt P40763); assay: In vitro kinetic labeling of purified STAT3 protein by fluorescent probe (SDS-PAGE fluorescence); assay type: biochemical; settings: 100 μM, 0-4 h, 4°C
Experimental: 1 μg of purified STAT3 (SignalChem) protein was incubated with 100 μM 4a at 4°C. At the indicated time points the reaction was quenched with Laemmli loading buffer containing 1.43 M β-mercaptoethanol. Quenched samples were then subjected to 4-20% SDS-PAGE and imaged using the Chemi-Doc MP system (BIO-RAD). Following gel quantification (Image Lab software, BIO-RAD) the data points were plotted and visualized by GraphPad PRISM software.

[4] = biological target: T1, purified STAT3; assay: Gel-based STAT protein isoform labeling, STAT3; assay type: biochemical; settings: 100 μM, 16 h, 4°C
Experimental: (§1) 1.0 μg of purified STAT3, STAT5, and STAT1 (SignalChem) were incubated with 100 uM of 4a for 16 h at 4°C. Samples were subjected to 4-20% SDS-PAGE and imaged using the Chemi-Doc MP (BIO-RAD).

[5] = biological target: T2, purified STAT5 (Homo sapiens, UniProt P42229); assay: Gel-based STAT protein isoform labeling, STAT5; assay type: biochemical; settings: 100 μM, 16 h, 4°C
T2 construct: His; purchased SignalChem S56-54H
T2 sequence (P42229 1-794): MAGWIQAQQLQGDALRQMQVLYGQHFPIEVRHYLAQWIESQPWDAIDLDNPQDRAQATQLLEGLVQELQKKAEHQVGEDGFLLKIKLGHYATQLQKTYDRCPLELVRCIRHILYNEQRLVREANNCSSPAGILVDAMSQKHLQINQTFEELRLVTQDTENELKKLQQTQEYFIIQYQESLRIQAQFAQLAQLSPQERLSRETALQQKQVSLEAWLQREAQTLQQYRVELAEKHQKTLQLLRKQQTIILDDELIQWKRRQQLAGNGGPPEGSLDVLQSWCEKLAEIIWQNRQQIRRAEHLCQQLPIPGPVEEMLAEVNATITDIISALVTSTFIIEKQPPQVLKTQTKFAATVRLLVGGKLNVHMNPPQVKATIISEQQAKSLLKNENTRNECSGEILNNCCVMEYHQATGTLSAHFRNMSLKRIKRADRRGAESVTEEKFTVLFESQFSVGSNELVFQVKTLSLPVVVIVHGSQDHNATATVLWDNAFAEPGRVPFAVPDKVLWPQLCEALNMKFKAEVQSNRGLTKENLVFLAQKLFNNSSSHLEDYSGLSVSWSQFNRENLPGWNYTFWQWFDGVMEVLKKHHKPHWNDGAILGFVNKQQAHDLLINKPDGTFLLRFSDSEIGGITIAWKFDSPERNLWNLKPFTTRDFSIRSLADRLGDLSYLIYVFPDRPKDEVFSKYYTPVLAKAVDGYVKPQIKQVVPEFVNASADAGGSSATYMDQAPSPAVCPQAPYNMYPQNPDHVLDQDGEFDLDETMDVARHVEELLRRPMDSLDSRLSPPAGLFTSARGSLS
Experimental: as §1

[6] = biological target: T3, purified STAT1 (Homo sapiens, UniProt P42224); assay: Gel-based STAT protein isoform labeling, STAT1; assay type: biochemical; settings: 100 μM, 16 h, 4°C
T3 construct: GST; purchased SignalChem S52-54G
T3 sequence (P42224 1-712 isoform P42224-2): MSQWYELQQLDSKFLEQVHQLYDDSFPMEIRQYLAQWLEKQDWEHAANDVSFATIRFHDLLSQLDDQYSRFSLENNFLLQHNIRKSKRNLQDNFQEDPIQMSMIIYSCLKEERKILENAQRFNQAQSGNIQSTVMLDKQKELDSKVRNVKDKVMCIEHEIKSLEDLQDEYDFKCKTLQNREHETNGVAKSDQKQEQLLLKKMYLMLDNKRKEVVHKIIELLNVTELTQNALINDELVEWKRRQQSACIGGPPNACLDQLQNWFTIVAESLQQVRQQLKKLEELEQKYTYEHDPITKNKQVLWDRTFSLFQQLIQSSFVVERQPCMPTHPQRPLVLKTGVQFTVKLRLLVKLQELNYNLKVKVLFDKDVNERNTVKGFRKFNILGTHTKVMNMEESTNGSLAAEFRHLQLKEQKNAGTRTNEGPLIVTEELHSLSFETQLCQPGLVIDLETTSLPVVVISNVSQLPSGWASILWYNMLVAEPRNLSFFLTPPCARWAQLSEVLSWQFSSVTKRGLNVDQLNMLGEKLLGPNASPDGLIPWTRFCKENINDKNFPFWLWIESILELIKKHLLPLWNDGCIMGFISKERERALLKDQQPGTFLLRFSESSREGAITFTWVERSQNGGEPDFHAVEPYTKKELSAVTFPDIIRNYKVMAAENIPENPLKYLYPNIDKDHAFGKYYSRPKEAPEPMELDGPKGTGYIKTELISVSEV
Experimental: as §1

[7] = system: MDA-MB-231 cell lysates; assay: Fluorescent labeling of MDA-MB-231 whole cell lysates (SDS-PAGE); assay type: biochemical; settings: for fluorescent labeling of protein content of cell lysates, O-tosyl vs sulfonamide probe: 100 μM
Experimental: (§2) To investigate the reactivity of 4a in cell lysates, 5 × 10^6 MDA-MB-231 cells were lysed with 200 μL RIPA buffer (Sigma-Aldrich). Lysates were treated with 0-500 μM of compound for 16 h at 4°C and subjected to 4-20% SDS-PAGE. To investigate the in cellulo activity 2 × 10^6 MDA-MB-231 cells were seeded in […] dishes. The following day cells were treated with 0-200 μM of 4a at 37°C, 5% CO2 for 6 h. Cells were lysed using 200 μL RIPA buffer (Sigma-Aldrich) and the lysates were subjected to 4-20% SDS-PAGE. Gels were visualized using the Chemi-Doc MP system. (BIO-RAD). Total protein levels were visualized using Coomassie Brilliant Blue stain. An identical protocol was performed for 4b for direct comparison with 4a.

[8] = system: MDA-MB-231 cells; assay: Live cell dosing of MDA-MB-231 cells, fluorescent protein labeling (SDS-PAGE); assay type: cell-based; settings: 0, 50, 100, 200 μM, 6 h, 37°C
Experimental: as §2

[9] = system: pSTAT3 in MDA-MB-231 cells; assay: Immunoblotting for activated pSTAT3 levels in MDA-MB-231 cells; assay type: cell-based; settings: increasing concentrations
Experimental: as §2
Lysates were reduced, boiled, subjected to 4-20% SDS-PAGE and transferred to LF-PVDF membranes. Membranes were blocked with 3% BSA and incubated with pSTAT3 (Abcam ab76315), STAT3 (Cell Signaling 4904) or B-Actin (Cell signaling 3700) at 4°C overnight. Membranes were then probed with either anti-mouse IgG Alexa Flour 488 (Cell Signaling 4408) or anti-rabbit IgG Alexa Fluor 647 (Cell Signaling 4414) for 1 h at room temperature. Membranes were visualized using the Chemi-Doc MP System (BIO-RAD).

[10] = system: STAT3; settings: cited from earlier work
[11] = system: activated STAT3 dimer; set-up: method as in PMID 21618433; settings: STAT3 EMSA assay; read-out: inhibition of activated STAT3 dimerization; cited from earlier work
[12] = biological target: STAT3:DNA binding; settings: approximate, reported value; read-out: approximate IC50 for the disruption of STAT3:DNA binding; cited from earlier work
[13] = biological target: recombinant, full-length STAT3 (Homo sapiens, UniProt P40763); assay: Incubation of recombinant full-length STAT3 with S3I-201, tryptic digestion and LC-MS/MS; settings: 500 μM S3I-201 (80-fold molar excess), 1 h, 37°C
Sequence of recombinant, full-length STAT3 (P40763 whole entry): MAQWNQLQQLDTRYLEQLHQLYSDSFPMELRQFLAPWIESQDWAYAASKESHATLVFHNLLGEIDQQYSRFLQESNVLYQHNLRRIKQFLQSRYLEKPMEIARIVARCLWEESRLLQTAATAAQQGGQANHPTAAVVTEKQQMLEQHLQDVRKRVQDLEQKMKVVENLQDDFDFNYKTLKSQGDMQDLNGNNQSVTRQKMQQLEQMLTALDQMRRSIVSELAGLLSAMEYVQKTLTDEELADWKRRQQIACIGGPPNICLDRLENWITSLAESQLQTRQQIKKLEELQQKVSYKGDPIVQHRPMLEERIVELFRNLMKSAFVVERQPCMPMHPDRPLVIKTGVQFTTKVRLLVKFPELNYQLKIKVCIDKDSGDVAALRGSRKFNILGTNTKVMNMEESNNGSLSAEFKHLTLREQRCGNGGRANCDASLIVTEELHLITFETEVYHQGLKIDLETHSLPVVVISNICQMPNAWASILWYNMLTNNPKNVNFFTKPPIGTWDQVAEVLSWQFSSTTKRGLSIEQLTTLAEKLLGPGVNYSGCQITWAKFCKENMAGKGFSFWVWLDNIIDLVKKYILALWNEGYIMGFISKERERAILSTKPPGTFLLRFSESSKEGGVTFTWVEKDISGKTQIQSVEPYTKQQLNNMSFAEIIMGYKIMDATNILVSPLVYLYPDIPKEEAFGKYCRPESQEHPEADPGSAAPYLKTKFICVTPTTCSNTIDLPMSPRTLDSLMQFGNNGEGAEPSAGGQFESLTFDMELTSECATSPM
Experimental: The incubation was then quenched by the addition of dithiothreitol (DTT) to a final concentration of 0.5 mM and incubation at 55°C for 30 min. Free sulfhydryl groups were alkylated with 2-iodoacetamide (Sigma) at a final concentration of 1.5 mM for 45 min at room temperature. The samples were subjected to trypsin (Promega) digestion (0.5 μg of trypsin per reaction), lyophilized, re-suspended in 0.1% formic acid, and desalted using ZipTip C18 (EMD Millipore) prior to analysis. Samples were analyzed by LC-MS/MS on a nanoLC ultra HPLC system (Eksigent) coupled to a Thermo Scientific Orbitrap-Elite.
The aqueous and organic mobile phases consisted of 0.1% formic acid in water or CH3CN respectively. Organic mobile phase composition was varied over each hour long LC-MS/MS analysis as follows: 2% from 0 to 1 min, 10% to 35% from 1 to 35 min, 80% from 35.5 to 44.5 min, 2% from 45 to 60 min.

T1 sequence (P40763 whole entry): as above

## Cc1ccc(S(=O)(=O)NCC(=O)Nc2ccc(C(=O)O)c(O)c2)cc1 [DB-5-112]
[1]
  half-life at 100 μM: 25400 h
[2]
  K (kobs), one phase decay: 2.725e-05 h⁻¹
  Tau, one phase decay: 36701
  reactivity with GSH: no reactivity toward GSH

## Cc1ccccc1CN(CC(=O)N(Cc1ccc(C2CCCCC2)cc1)c1ccc(C(=O)O)c(O)c1)S(=O)(=O)c1ccc(C(F)(F)F)cc1 [BP-5-087]
[1]
  half-life at 100 μM: 5.14 h
[2]
  K (kobs), one phase decay: 0.1348 h⁻¹
  Tau, one phase decay: 7.417
  reactivity with GSH: negligible reactivity with GSH

## Cc1ccc(S(=O)(=O)OCC(=O)N(Cc2cn(CCOCCOCCOCCNS(=O)(=O)c3cccc4c(N(C)C)cccc34)nn2)c2ccc(C(=O)O)c(O)c2)cc1 [4a]
[3]
  fluorescent labeling of purified STAT3 over time course: time dependent increase in fluorescent signal
[4]
  fluorescent labeling of purified STAT3: non-specific fluorescent labeling of all three STAT isoforms
[5]
  fluorescent labeling of purified STAT5: non-specific fluorescent labeling of all three STAT isoforms
[6]
  fluorescent labeling of purified STAT1: non-specific fluorescent labeling of all three STAT isoforms
[7]; 0, 100, 250, 500 μM, 16 h, 4°C
  fluorescent labeling of protein content of cell lysates: pronounced, non-specific, global labeling of the protein content
[7]
  fluorescent labeling of protein content of cell lysates, O-tosyl vs sulfonamide probe: promiscuously modified
[8]
  fluorescent labeling of intracellular proteins in whole cells: increasing levels of fluorescent intensities following the dose of reporter
[8]; listed as DB-6-055
  fluorescent labeling of intracellular proteins in whole cells: non-specifically and globally alkylated intracellular proteins
[9]
  pSTAT3 levels (immunoblot): dose-dependent decrease in pSTAT3 levels

## O=[N+]([O-])c1ccc2c(c1)S(=O)(=O)C=C2 [Stattic]
[10]
  cysteine residues of STAT3 modified: Cys251, 259, 367, and 426

## Cc1ccc(S(=O)(=O)NCC(=O)N(Cc2cn(CCOCCOCCOCCNS(=O)(=O)c3cccc4c(N(C)C)cccc34)nn2)c2ccc(C(=O)O)c(O)c2)cc1 [4b]
[7]
  fluorescent labeling of protein content of cell lysates, O-tosyl vs sulfonamide probe: no observable fluorescent enhancement

## C[C@@H]1C=C2C(=O)O[C@@H]3CC[C@H](C1)[C@]23O [Galiellalactone]
[10]
  cysteine residues of STAT3 covalently modified (MS/MS analysis): covalently modified three cysteine residues (367, 468, and 542)

## Cc1ccc(S(=O)(=O)OCC(=O)Nc2ccc(C(=O)O)c(O)c2)cc1 [S3I-201]
[11]
  IC50: 86 µM
[12]
  IC50: ~100 µM
[13]
  cysteine residues of STAT3 covalently modified (LC-MS/MS): covalently modified Cys108, Cys259, Cys367, Cys542, and Cys687; also recorded: five specific sites of modification, cysteine's 108, 259, 367, 542, and 687; also recorded: Cys residues (418, 426, and 712) were not alkylated
[2]
  K (kobs), one phase decay: 2.735 h⁻¹
  Tau, one phase decay: 0.3657

## CN(CC(=O)N(Cc1ccc(C2CCCCC2)cc1)c1ccc(C(=O)O)c(O)c1)S(=O)(=O)c1c(F)c(F)c(F)c(F)c1F [BP-1-102]
[2]
  K (kobs), one phase decay: 0.5322 h⁻¹
  Tau, one phase decay: 1.879

## CN(CC(=O)N(Cc1ccc(C2CCCCC2)cc1)c1ccc(C(=O)O)cc1)S(=O)(=O)c1c(F)c(F)c(F)c(F)c1F [SH-4-054]
[2]
  K (kobs), one phase decay: 0.5147 h⁻¹
  Tau, one phase decay: 1.943

## Cc1ccc(S(=O)(=O)N(C)CC(=O)N(Cc2ccc(C3CCCCC3)cc2)c2ccc(C(=O)O)c(O)c2)cc1 [SF-1-066]
[1]
  half-life at 100 μM: ~0.0409 h
[2]
  K (kobs), one phase decay: ~ 16.95 h^−1
  Tau, one phase decay: ~ 0.05898
  reactivity with GSH: negligible reactivity with GSH
